Test results published in US11912693B2, “Compounds for modulating S1P1 activity and methods of using the same” (TREVENA, INC., priority 2017, dated 2024).
pIC50: −log10 of the molar value.

Experiments:
[1] = system: peripheral blood lymphocytes; assay: Peripheral blood lymphocytes (lymphopenia) in c57bl/6 mice, acute and chronic studies; format: in vivo; settings: for Lymphopenia: Effect and Doses, mg/kg, sc: peripheral blood lymphocytes vs vehicle; for Lymphopenia: Effect and Doses, mg/kg, sc (change in peripheral blood lymphocytes): significance vs vehicle given
Procedure: Compounds were tested for changes in peripheral blood lymphocytes in c57bl/6 mice. In acute studies, animals (n=5/group) were dosed subcutaneously with test compound at a dose of 3 mg/kg. Animals were sacrificed at specific time points and 500 μl of whole blood was collected in EDTA (K2) Eppendorf tubes. Blood was stored on ice and shipped immediately overnight delivery to Charles River Laboratories for analysis. CRL ran samples through their WBC/differential panel on an Advia 120 instrument. We received peripheral lymphocyte counts (10^3 cells/μl) for each blood sample. Treatment group means were compared to a vehicle treatment group for statistical significance. In chronic studies, animals (n=6-8/group) were dosed subcutaneously with test compound either in a dose response paradigm (highest dose of 3 mg/kg) or in a screening paradigm at 6 mg/kg for seven days. On the seventh day, animals were sacrificed 45 minutes after the final dose. Whole blood was collected and analyzed as described for acute studies. […]

[2] = target: T1, human sphingosine-1-phosphate receptor 1 (S1P1) (Homo sapiens (Human), UniProt P21453); assay: Inhibition of cAMP production (HTRF cAMP HiRange), S1P1 CHO-K1 cells; format: cell-based; settings: for hS1P1 cAMP pEC50: inhibition of cAMP production, S1P1 CHO-K1 cells; for Emax: CHO-K1, efficacy (SPAN) normalized to fingolimod, read-out: hS1P1 cAMP SPAN
How it was run: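 CHO-K1 cells stably co-expressing human S1P1 (C-terminal Prolink tag) and EA-β-arrestin2 were grown in AssayComplete Media 6 at 37° C. and 5% CO2, plated, and incubated overnight. Agonist-driven inhibition of intracellular cAMP was read by TR-FRET with the HTRF cAMP HiRange kit on a PheraStar reader. Potency is pEC50, and efficacy (SPAN) is normalized to fingolimod.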
Target sequence in this assay (P21453 whole entry, looked up): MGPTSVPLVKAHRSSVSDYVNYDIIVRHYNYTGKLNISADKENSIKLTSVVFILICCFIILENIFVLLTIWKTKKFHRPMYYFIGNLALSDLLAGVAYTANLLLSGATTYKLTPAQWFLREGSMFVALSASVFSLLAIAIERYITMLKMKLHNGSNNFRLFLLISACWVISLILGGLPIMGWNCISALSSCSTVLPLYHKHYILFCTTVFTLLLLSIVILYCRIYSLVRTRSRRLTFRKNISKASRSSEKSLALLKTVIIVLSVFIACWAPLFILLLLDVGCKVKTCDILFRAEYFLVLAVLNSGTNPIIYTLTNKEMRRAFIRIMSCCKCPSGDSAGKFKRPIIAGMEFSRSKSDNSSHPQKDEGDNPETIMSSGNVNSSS

[3] = target: T1, human sphingosine-1-phosphate receptor 1 (S1P1); assay: β-Arrestin2 recruitment assay (PathHunter), S1P1 CHO-K1 cells; format: cell-based; settings: for hS1P1 B-arrestin2 pEC50: β-arrestin2 recruitment, S1P1 CHO-K1 cells; for Emax: CHO-K1, efficacy (SPAN) normalized to fingolimod, read-out: hS1P1 B-arrestin2 SPAN
How it was run: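 Enzyme-fragment complementation read-out: agonist-driven β-arrestin2 binding to ProLink-tagged human S1P1 in stable CHO-K1 cells restores β-galactosidase, measured 1 h at room temperature after a 60 min 37° C. compound incubation. Potency as pEC50, efficacy relative to fingolimod (SPAN).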
Target sequence in this assay (P21453 whole entry, looked up): as above
Target sequence in this assay (P32121 whole entry partner, looked up): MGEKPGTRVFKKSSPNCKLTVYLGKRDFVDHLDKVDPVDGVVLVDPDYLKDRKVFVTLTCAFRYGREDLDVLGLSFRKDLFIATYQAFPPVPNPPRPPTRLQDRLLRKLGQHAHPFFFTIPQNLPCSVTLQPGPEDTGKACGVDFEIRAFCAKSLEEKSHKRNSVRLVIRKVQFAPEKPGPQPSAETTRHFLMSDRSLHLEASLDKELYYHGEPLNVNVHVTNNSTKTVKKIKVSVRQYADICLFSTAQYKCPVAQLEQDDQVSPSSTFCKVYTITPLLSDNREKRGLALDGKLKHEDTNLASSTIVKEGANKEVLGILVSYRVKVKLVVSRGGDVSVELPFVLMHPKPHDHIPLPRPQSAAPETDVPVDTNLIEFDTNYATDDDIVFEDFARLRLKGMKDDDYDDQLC

[4] = system: paclitaxel induced peripheral neuropathy; assay: Reversal of allodynia induced by paclitaxel in mice (s.c. or p.o., von Frey frequency method); format: in vivo, c57bl/6 mice; settings: Mus musculus; for inhibition in vivo at 3 mg/kg: po, 1 h, 3 mg/kg p.o., tested 60 min after dosing, read-out: Screen @ 3 mg/kg po (% MPE); for inhibition in vivo at 1 mg/kg: sc, 0.5 h, 1 mg/kg s.c., tested 30 min after dosing, read-out: Screen @ 1 mg/kg sc (% MPE)
How it was run: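 Neuropathy was induced in mice by paclitaxel (6 mg/kg i.p., days 1, 3, 5, 7) or oxaliplatin (4 mg/kg i.p., days 1-5), with re-testing about 14 days later. Compounds were given s.c. (tested at 30 min) or p.o. (tested at 60 min; paclitaxel only). A 0.4 g von Frey filament was applied ten times per paw, and % non-response was converted to % MPE.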

hERG channel = hERG channel (Homo sapiens (Human), UniProt Q12809); assay: Automated Qpatch patch-clamp hERG assay
Sequence of hERG channel (Q12809 whole entry): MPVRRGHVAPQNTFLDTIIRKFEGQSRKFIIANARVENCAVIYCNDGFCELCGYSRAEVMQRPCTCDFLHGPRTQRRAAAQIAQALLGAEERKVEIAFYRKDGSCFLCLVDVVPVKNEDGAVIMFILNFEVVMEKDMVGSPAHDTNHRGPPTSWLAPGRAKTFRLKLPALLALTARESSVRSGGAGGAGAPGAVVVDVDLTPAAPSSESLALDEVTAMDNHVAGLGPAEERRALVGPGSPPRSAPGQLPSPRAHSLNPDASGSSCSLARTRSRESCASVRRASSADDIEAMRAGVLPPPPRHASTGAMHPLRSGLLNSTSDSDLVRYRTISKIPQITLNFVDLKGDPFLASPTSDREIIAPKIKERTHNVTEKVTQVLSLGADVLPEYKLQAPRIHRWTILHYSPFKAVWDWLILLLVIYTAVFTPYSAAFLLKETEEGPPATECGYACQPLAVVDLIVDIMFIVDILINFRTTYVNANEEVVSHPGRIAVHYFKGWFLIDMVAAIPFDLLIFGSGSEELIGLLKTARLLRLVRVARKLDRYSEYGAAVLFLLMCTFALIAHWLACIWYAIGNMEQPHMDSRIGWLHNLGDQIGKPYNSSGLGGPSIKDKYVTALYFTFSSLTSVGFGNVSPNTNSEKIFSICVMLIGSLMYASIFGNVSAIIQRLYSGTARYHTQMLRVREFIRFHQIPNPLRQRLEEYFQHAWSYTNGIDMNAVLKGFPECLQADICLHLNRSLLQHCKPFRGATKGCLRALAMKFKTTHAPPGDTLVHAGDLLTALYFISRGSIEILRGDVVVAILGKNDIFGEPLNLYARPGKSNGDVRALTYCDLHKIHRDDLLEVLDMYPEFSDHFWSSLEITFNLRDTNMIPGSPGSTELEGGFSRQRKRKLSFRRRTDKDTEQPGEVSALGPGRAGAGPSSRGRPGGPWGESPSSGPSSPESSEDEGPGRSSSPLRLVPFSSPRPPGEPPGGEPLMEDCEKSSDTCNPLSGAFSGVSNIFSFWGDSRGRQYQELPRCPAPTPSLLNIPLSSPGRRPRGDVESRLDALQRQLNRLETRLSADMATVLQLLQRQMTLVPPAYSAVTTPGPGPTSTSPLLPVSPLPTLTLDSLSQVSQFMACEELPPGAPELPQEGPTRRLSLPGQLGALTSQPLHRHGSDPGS

[5] = target: sphingosine-1-phosphate receptor 5 (S1P5) (Homo sapiens (Human), UniProt Q9H228); assay: Inhibition of cAMP production (HTRF), S1P5 CHO-K1 cells; format: cell-based; settings: inhibition of cAMP production, hS1P5
Sequence of sphingosine-1-phosphate receptor 5 (S1P5) (Q9H228 whole entry): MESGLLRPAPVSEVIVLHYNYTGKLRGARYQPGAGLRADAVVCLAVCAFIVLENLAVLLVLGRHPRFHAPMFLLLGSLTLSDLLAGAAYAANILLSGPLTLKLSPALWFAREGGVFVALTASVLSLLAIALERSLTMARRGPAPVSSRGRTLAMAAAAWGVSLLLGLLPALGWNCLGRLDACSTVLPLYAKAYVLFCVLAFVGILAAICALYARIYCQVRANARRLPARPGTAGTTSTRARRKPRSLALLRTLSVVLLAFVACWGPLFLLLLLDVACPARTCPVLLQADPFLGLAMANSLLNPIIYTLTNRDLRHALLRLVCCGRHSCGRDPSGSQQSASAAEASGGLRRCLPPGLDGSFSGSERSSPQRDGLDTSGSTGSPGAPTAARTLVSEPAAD
Procedure: (§1) Stable clonal Chinese hamster ovary K1 (CHO-K1) cells co-expressing EA-β-arrestin2 and the human sphingosine-1-phosphate receptor 2 (NM_004230.3, S1P2), human sphingosine-1-phosphate receptor 3 (NM_005226, S1P3) and sphingosine-1-phosphate receptor 5 (NM_001166215.1, S1P5) with a C-terminal Prolink™ tag were purchased from DiscoverX corporation (S1P2: Cat #93-0256C2, S1P3: Cat #93-0217C2, S1P5: Cat #93-0583C2).
(§2) Cell lines were cultured in AssayComplete™ Media 6 (DiscoverX Corporation, Cat #: 920018GF2) at 37° C. and 5% CO2 in a humidified CO2 and temperature-controlled incubator. To begin assay plating, cells were washed with dulbecco's phosphate buffered saline (CellGro, Cat #: 21-031-CV) and lifted from the culturing flask by incubation (37° C., 5 min) with CellStripper (Cellgro, Cat #: 25-056-CI). […] Plated cells were incubated overnight at 37° C. and 5% CO2 in a humidified CO2 and temperature-controlled incubator.
(§3) S1P3 and S1P5 Agonist-promoted G-protein responses were determined by measuring changes in intracellular cAMP using the HTRF® cAMP HiRange kit (CisBio, Cat #: 62AM6PEJ) based on time-resolved fluorescence resonance energy transfer (TR-FRET) technology. […] Following a 30-minute room temperature incubation the components of the cAMP HiRange kit were added as per the manufacturer's instructions. After an hour incubation at room temperature, plates were analyzed by a BMG PheraStar microplate reader.
(§4) The tables below include the efficacy of the compound as compared to a positive control, referred to as “SPAN”. These values are normalized to fingolimod, a known agonist of the sphingosine-1-phosphate 3 and 5 receptor or CYM5520, a known agonist of the sphingosine-1-phosphate 2 receptor. The tables also include potency values (pEC50) for modulating discrete receptor-mediated activities (inhibition of cAMP production or inositol monophosphate accumulation).

[6] = target: human sphingosine-1-phosphate receptor 3 (S1P3) (Homo sapiens (Human), UniProt Q99500); assay: Inhibition of cAMP production (HTRF), S1P3 CHO-K1 cells; format: cell-based; settings: inhibition of cAMP production, hS1P3
Sequence of human sphingosine-1-phosphate receptor 3 (S1P3) (Q99500 whole entry): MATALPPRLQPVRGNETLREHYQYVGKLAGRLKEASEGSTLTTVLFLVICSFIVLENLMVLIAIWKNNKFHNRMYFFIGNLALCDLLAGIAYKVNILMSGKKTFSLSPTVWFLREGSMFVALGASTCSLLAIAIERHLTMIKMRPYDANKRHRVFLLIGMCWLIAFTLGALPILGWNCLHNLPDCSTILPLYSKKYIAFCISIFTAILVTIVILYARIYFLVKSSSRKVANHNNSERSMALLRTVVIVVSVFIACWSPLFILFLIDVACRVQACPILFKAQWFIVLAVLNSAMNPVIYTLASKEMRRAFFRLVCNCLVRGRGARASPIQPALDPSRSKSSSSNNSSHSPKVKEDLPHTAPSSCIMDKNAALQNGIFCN
Procedure: as §1, §2, §3, §4

[7] = target: human sphingosine-1-phosphate receptor 2 (S1P2) (Homo sapiens (Human), UniProt O95136); assay: Inositol monophosphate production (IP-one TB kit), S1P2 CHO-K1 cells; format: cell-based; settings: inositol monophosphate accumulation, hS1P2
Sequence of human sphingosine-1-phosphate receptor 2 (S1P2) (O95136 whole entry): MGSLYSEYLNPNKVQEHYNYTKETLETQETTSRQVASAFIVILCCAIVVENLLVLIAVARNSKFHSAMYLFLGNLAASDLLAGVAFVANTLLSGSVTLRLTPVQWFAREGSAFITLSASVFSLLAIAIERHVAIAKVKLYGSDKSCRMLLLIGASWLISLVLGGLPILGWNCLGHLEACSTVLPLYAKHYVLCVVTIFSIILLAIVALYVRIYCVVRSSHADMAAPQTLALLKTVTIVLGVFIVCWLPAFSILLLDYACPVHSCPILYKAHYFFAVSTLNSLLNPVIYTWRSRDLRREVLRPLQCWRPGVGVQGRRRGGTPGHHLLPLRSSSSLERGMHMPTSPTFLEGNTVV
Procedure: as §1, §2
S1P2 Agonist-promoted G-protein responses were determined by measuring changes in intracellular inositol monophosphate using the IP-one TB kit (CisBio, Cat #: 62IPAPEJ) based on time-resolved fluorescence resonance energy transfer (TR-FRET) technology. AssayComplete™ Cell Plating 2 Reagent was removed and replaced with 1× IP-one stimulation buffer (as per manufacturer's instructions) along with test or control compounds at the desired concentrations. Following a 60-minute incubation at 37° C. and 5% CO2 in a humidified CO2 and temperature-controlled incubator, the components of the IP-one TB kit were added as per the manufacturer's instructions. After an hour incubation at room temperature, plates were analyzed by a BMG PheraStar microplate reader.
as §4

| SMILES | Lymphopenia: Effect and Doses, mg/kg, sc ([1]; 6 mg/kg sc, 7 days) | hS1P1 cAMP pEC50 [2] | hS1P1 B-arrestin2 pEC50 [3] | inhibition in vivo at 3 mg/kg [4] | also measured |
| --- | --- | --- | --- | --- | --- |
| COc1cccc(-c2noc(-c3ccc4c(c3)nnn4C(C)C)n2)n1 [Compound 19, 5-[3-(6-methoxypyridin-2-yl)-1,2,4-oxadiazol-5-yl]-1-(propan-2-yl)-1H-1,2,3-benzotriazole] | no change: 6 mg/kg, 7 days | <6.5 | >5 | – | – |
| CCC1(CC)CC(=O)c2cc(-c3nc(-c4ccc(NC(C)=O)cc4OC)no3)ccc2O1 [Compound 531, N-{4-[5-(2,2-diethyl-4-oxo-3,4-dihydro-2H-1-benzopyran-6-yl)-1,2,4-oxadiazol-3-yl]-3-methoxyphenyl}acetamide] | no change: 6 mg/kg, 7 days | >6.5 | >5 | > 50% | – |
| CC(C)Oc1ccc(-c2ncc(-c3cccnc3)cn2)cc1C#N [Compound 738, 2-isopropoxy-5-(5-(pyridin-3-yl)pyrimidin-2-yl)benzonitrile] | – | – | – | – | pIC50 (hERG channel): < 5.00 |
| CN1C(=O)CCc2cc(-c3nc(-c4cccnc4)no3)ccc21 [Compound 384, 1-methyl-6-[3-(pyridin-3-yl)-1,2,4-oxadiazol-5-yl]-1,2,3,4-tetrahydroquinolin-2-one] | – | <6.5 | <5 | – | Lymphopenia: Effect and Doses, mg/kg, sc ([1]; acute, 3 mg/kg sc, 45 min and 2 hr): no change: 3 mg/kg; 45 min and 2 hr |
| Cc1ccccc1-c1noc(-c2ccc3c(c2)nnn3C(C)(C)C)n1 [Compound 59, 1-tert-butyl-5-[3-(2-methylphenyl)-1,2,4-oxadiazol-5-yl]-1H-1,2,3-benzotriazole] | no change: 6 mg/kg, 7 days | >6.5 | >5 | – | – |
| CC(C)n1nnc2cc(-c3nc(-c4cccc5c4OCO5)no3)ccc21 [Compound 32, 3-(benzo[d][1,3]dioxol-4-yl)-5-(1-isopropyl-1H-benzo[d][1,2,3]triazol-5-yl)-1,2,4-oxadiazole] | no change: 6 mg/kg, 7 days | >6.5 | >5 | – | hS1P5 cAMP pEC50 [5]: <5.0; hS1P3 cAMP pEC50 [6]: <5.0; hS1P2 IP-one pEC50 [7]: <5.0 |
| CC(F)(F)CNc1ccc(-c2nnc(-c3ccc4[nH]ncc4c3)o2)cc1C#N [Compound 355, 2-[(2,2-difluoropropyl)amino]-5-[5-(1H-indazol-5-yl)-1,3,4-oxadiazol-2-yl]benzonitrile] | no change: 6 mg/kg, 7 days | >6.5 | >5 | > 50% | – |
| Cc1cnc(-c2nc(-c3ccc4c(c3)nnn4C(C)C)no2)cn1 [Compound 234, 3-(1-isopropyl-1H-benzo[d][1,2,3]triazol-5-yl)-5-(5-methylpyrazin-2-yl)-1,2,4-oxadiazole] | no change: 6 mg/kg, 7 days | <6.5 | <5 | – | – |
| Cc1ccccc1-c1noc(-c2ccc3c(c2)nnn3CC(C)C)n1 [Compound 96, 5-[3-(2-methylphenyl)-1,2,4-oxadiazol-5-yl]-1-(2-methylpropyl)-1H-1,2,3-benzotriazole] | no change: 6 mg/kg, 7 days | >6.5 | >5 | – | Emax [2]: > 75%; inhibition in vivo at 1 mg/kg [4]: > 50%; Emax [3]: > 75% |
| Cc1cnccc1-c1nc(-c2ccc3c(c2)nnn3C(C)C)no1 [Compound 8, 3-(1-isopropyl-1H-benzo[d][1,2,3]triazol-5-yl)-5-(3-methylpyridin-4-yl)-1,2,4-oxadiazole] | no change: 6 mg/kg, 7 days | <6.5 | <5 | – | Emax [2]: < 75%; inhibition in vivo at 1 mg/kg [4]: < 50%; Emax [3]: < 75% |
| N#Cc1cc(-c2nc(-c3ccc4oc(=O)[nH]c4c3)no2)ccc1NCC1CC1 [Compound 423, 2-((cyclopropylmethyl)amino)-5-(3-(2-oxo-2,3-dihydrobenzo[d]oxazol-5-yl)-1,2,4-oxadiazol-5-yl)benzonitrile] | no change: 6 mg/kg, 7 days | >6.5 | >5 | > 50% | hS1P3 cAMP pEC50 [6]: >5.0; hS1P2 IP-one pEC50 [7]: >5.0 |
| CC(C)Nc1ccc(-c2nnc(-c3ccc4[nH]cnc4c3)o2)cc1C#N [Compound 356, 5-[5-(1H-1,3-benzodiazol-5-yl)-1,3,4-oxadiazol-2-yl]-2-[(propan-2-yl)amino]benzonitrile] | no change: 6 mg/kg, 7 days | >6.5 | >5 | > 50% | Emax [2]: > 75%; Emax [3]: > 75% |
| CC(C)Nc1ccc(-c2ncc(-c3cccnc3)cn2)cc1C#N [Compound 737, 2-(isopropylamino)-5-(5-(pyridin-3-yl)pyrimidin-2-yl)benzonitrile] | – | – | – | – | Lymphopenia: Effect and Doses, mg/kg, sc (change in peripheral blood lymphocytes) ([1]; 6 mg/kg sc, 7 days): −40% not stat sig: 6 mg/kg, 7 days |
| CC(C)Oc1ccc(-c2nc(-c3ccc4c(c3)nnn4C(C)C)no2)cc1C#N [Compound 22, 2-isopropoxy-5-(3-(1-isopropyl-1H-benzo[d][1,2,3]triazol-5-yl)-1,2,4-oxadiazol-5-yl)benzonitrile] | – | – | – | – | Lymphopenia: Effect and Doses, mg/kg, sc ([1]; 3 mg/kg sc, 7 days): no change: 3 mg/kg, 7 days |
| COc1cc(NC(C)=O)ccc1-c1noc(-c2ccc(NC(C)C)c(C#N)c2)n1 [Compound 731, N-[4-(5-{3-cyano-4-[(propan-2-yl)amino]phenyl}-1,2,4-oxadiazol-3-yl)-3-methoxyphenyl]acetamide] | – | – | – | > 50% | Lymphopenia: Effect and Doses, mg/kg, sc (change in peripheral blood lymphocytes) ([1]; 6 mg/kg sc, 7 days): −78% stat sig: 6 mg/kg, 7 days |
